{"source": "paper PMC8427442", "about": "(Frontiers in Pharmacology, 2021)", "key": {"SARS-CoV-2 3CLpro": {"molecular_target": "SARS-CoV-2 3CLpro (Severe acute respiratory syndrome coronavirus 2, UniProt P0DTD1)", "assay": "Protease activity assay with IQF peptide substrate, dose-response", "type": "biochemical", "details": "for IC50: IC50 against SARS-CoV-2 3CLpro, 0.125 µM 3CLpro, 1 h preincubation at 37°C, 1.25 µM IQF peptide substrate, 3 h, N = 3, mean ± SEM; for relative SARS-CoV-2 3CLpro activity (down from 100%): compound at 12.5 µM, data not shown"}, "SARS-CoV 3CLpro": {"molecular_target": "SARS-CoV 3CLpro (Severe acute respiratory syndrome coronavirus, UniProt P0C6X7)", "type": "biochemical"}, "IL-6, IL-1β, IL-8 mRNA": {"tested_on": "IL-6, IL-1β, IL-8 mRNA", "assay": "Proinflammatory gene mRNA by RT-PCR in LPS-stimulated A549 cells", "type": "cell-based, human", "details": "20 µM; for potency in reducing the levels of the four proinflammatory factors (TNF-α, IL-6, IL-1β, IL-8), compared to UJ: LPS-stimulated A549 cells"}, "SARS-CoV-2": {"tested_on": "SARS-CoV-2", "assay": "Plaque assay in SARS-CoV-2-infected Vero E6 cells", "type": "cell-based"}, "in vitro": {"assay": "in vitro", "details": "African green monkey, half-maximal cytotoxic concentration (CC50)"}, "TNF-α": {"tested_on": "TNF-α", "assay": "TNF-α protein level by western blot in LPS-stimulated A549 cells", "type": "cell-based, human", "details": "20 µM, 1 h before 10 μg/ml LPS, 24 h", "description": "For western blot analysis, an equal amount of the samples were resolved by SDS-PAGE, followed by transfer to PVDF membranes, following the protocol published previously ([Chiang et al., 2020]). Antibodies against TNF-α (GTX110520) and β-actin (GTX109639) were purchased from GeneTex, Taiwan. HRP-conjugated secondary antibodies were from Jackson ImmunoResearch Laboratories, Inc., United States. WesternBright® ECL kits were used for protein visualization (Advansta Inc., United States). Levels of protein expression were quantified in Fiji ([Schindelin et al., 2012]).\nHuman alveolar basal epithelial A549 cells have been used to investigate several lung diseases at the cellular level, including endotoxin-induced acute pneumonia ([Zhang J. et al., 2020]). To evaluate the anti-inflammatory effect of UJ, A549 cells were induced with lipopolysaccharide (LPS) for 24 h with or without treatment with UJ. Dexamethasone (Dex), an anti-inflammatory agent ([Chen et al., 2021]), was included as a positive control. […] In addition, the expression levels of proinflammatory genes, including interleukin 1β (IL-1β), IL-6 and IL-8 increased by 1.5- to 2-fold in LPS-stimulated A549 cells, compared with the control group (Figures 4B–D). […] Compared to the positive control (Dex at 5 µM), UJ treatment at 20 µM gave rise to a greater decrease in the TNF-α protein level and IL-6 and IL-8 mRNA. […]"}, "[1]": {"details": "1 h before 10 μg/ml LPS, 24 h, A549 cells"}}, "note": "Where “and” joins values, the source holds several entries; their conditions need not be identical. Equal entries are not always repeated."}
{"compound": "COc1c(-c2ccc(O)cc2)oc2cc(O)cc(O)c2c1=O", "note": "[Ikae, isokaempferide]", "values": [{"measurement": "IC50", "setting": "SARS-CoV-2 3CLpro", "result": "> 20 µM and 40.2 µM"}, {"measurement": "relative SARS-CoV-2 3CLpro activity (down from 100%)", "setting": "SARS-CoV-2 3CLpro", "result": "60–70%"}, {"measurement": "relative SARS-CoV 3CLpro activity (down from 100%)", "setting": "SARS-CoV 3CLpro", "result": "60–70%"}, {"measurement": "potency in reducing the levels of the four proinflammatory factors (TNF-α, IL-6, IL-1β, IL-8), compared to UJ", "setting": "IL-6, IL-1β, IL-8 mRNA", "result": "relatively moderate potency"}]}
{"compound": "O=c1c(O)c(-c2ccc(O)cc2)oc2cc(O)cc(O)c12", "note": "[Kae, kaempferol]", "values": [{"measurement": "IC50", "setting": "SARS-CoV-2 3CLpro", "result": "> 20 µM and 21.7 µM"}, {"measurement": "relative SARS-CoV-2 3CLpro activity (down from 100%)", "setting": "SARS-CoV-2 3CLpro", "result": "60–70%"}, {"measurement": "relative SARS-CoV 3CLpro activity (down from 100%)", "setting": "SARS-CoV 3CLpro", "result": "60–70%"}, {"measurement": "potency in reducing the levels of the four proinflammatory factors (TNF-α, IL-6, IL-1β, IL-8), compared to UJ", "setting": "IL-6, IL-1β, IL-8 mRNA", "result": "relatively moderate potency"}]}
{"compound": "O=c1cc(-c2ccc(O)c(O)c2)oc2cc(O)cc(O)c12", "note": "[Lu, luteolin]", "values": [{"measurement": "IC50", "setting": "SARS-CoV-2 3CLpro", "result": "> 20 µM and 20.5 µM"}]}
{"compound": "CCC(CC)COC(=O)[C@H](C)N[P@](=O)(OC[C@H]1O[C@@](C#N)(c2ccc3c(N)ncnn23)[C@H](O)[C@@H]1O)Oc1ccccc1", "note": "[Rem, Remdesivir]", "values": [{"measurement": "inhibition at 2 µM", "setting": "SARS-CoV-2; Severe acute respiratory syndrome coronavirus 2, Vero C1008, 2 µM, Vero E6 cells, plaque assay, read-out: inhibition of SARS-CoV-2 infection", "result": "~95", "unit": "%"}]}
{"compound": "C=C1CCCC(C)(C)[C@@H]1Cc1c(O)cc2oc(-c3ccc(O)c(O)c3)cc(=O)c2c1O", "note": "[UJ, ugonin J]", "values": [{"measurement": "IC50", "setting": "SARS-CoV-2 3CLpro", "result": "0.94 µM and ~0.94 µM"}, {"measurement": "relative SARS-CoV-2 3CLpro activity (down from 100%)", "setting": "SARS-CoV-2 3CLpro", "result": "about 15%"}, {"measurement": "EC50", "setting": "SARS-CoV-2; Severe acute respiratory syndrome coronavirus 2, Vero C1008, Vero E6 cells, 100 PFU, 1 h pretreatment, 3 days, N = 3, mean ± SEM, read-out: half-maximal effective concentration (EC50) against SARS-CoV-2 infection", "result": "~2.38", "unit": "µM"}, {"measurement": "prevention of SARS-CoV-2 infection", "setting": "SARS-CoV-2; pretreatment at 10 µM, Vero E6 cells, plaque assay", "result": "near complete prevention"}, {"measurement": "CC50 at 48 h", "setting": "in vitro", "result": "~783", "unit": "µM"}, {"measurement": "relative SARS-CoV 3CLpro activity (down from 100%)", "setting": "SARS-CoV 3CLpro", "result": "about 15%"}, {"measurement": "downregulation of IL-1β mRNA expression level", "setting": "IL-6, IL-1β, IL-8 mRNA; [1]", "result": "more than 1 fold"}, {"measurement": "downregulation of IL-6 mRNA expression level", "setting": "IL-6, IL-1β, IL-8 mRNA; [1]", "result": "more than 1 fold"}, {"measurement": "downregulation of IL-8 mRNA expression level", "setting": "IL-6, IL-1β, IL-8 mRNA; [1]", "result": "more than 1 fold"}, {"measurement": "reduction of TNF-α protein expression level", "setting": "TNF-α", "result": "more than 2 fold"}]}
